Source: article PMC6874132, “Biosensors Show the Pharmacokinetics of S-Ketamine in the Endoplasmic Reticulum” (Frontiers in Cellular Neuroscience, 2019)
Several values for one entry are separate records, joined by “and”; a condition that tells them apart may be missing. Equal entries are not always repeated.

Experiments:
iSketSnFR2 (AK8) = test: Dose-response of purified iSketSnFR2 (AK8) biosensor fluorescence; assay type: biochemical
Procedure: (§1) A Tecan Spark M10 96-well fluorescence plate reader (equipped with appropriate filters) was used to measure resting and S-ketamine-induced fluorescence (F0 and ΔF, respectively). Bacterial lysates were tested with excitation at 485 nm and emission at 535 nm. Promising clones were amplified and sequenced.
(§2) Biosensors selected for further study were purified with the His6 sequence included in the bacterial expression vector (Shivange et al., [2019]). Proteins were purified by immobilization in phosphate-buffered saline (PBS), pH 7.4, and elution in an imidazole gradient (10–200 mM). Proteins were concentrated by centrifugation through a 30 kDa cut off column, and by dialysis against PBS. The dialyzed protein was quantified using a nanodrop spectrofluorometer, and 50 or (preferably) 100 nM was used in dose-response studies to characterize responses to various ligands. Dose-response relations for ligands were conducted with the plate reader. The pH-dependent dose-response studies with purified iSketSnFR constructs were performed using 3× PBS buffers.
(§3) We introduce a convenient metric to summarize progress in evolving increasingly sensitive fluorescent biosensors for drugs. The metric, the S-slope, is especially appropriate for low drug concentrations because it corresponds to the relationship between [drug] and ΔF at the beginning of the dose-response relation. We define the S-slope for use with intensity-based drug biosensors:
(§4) S−slope = Δ(F/F0)/(Δ[drug]).
(§5) We state the S-slope in units of μM^−1.
(§6) This article uses the S-slope for measurements on S-ketamine biosensors in bacterial lysates, with purified proteins, and expressed in cells. […] In this case, we calculated (as in Figure 2A below),

iSketSnFR constructs = test: Activation of the iSketSnFR constructs by a permanently charged analog; assay type: biochemical
Procedure: as §2
The permanently charged nicotine analog, N’-methylnicotinium, previously provided additional insights for the iNicSnFR family (Shivange et al., [2019]).

iSketSnFR1_PM = test: Time-resolved fluorescence in iPSC-derived dopaminergic neurons transfected with iSketSnFR1_PM; assay type: cell-based, human; conditions: Figure 6C, dopaminergic neurons differentiated from iPSCs, average of five cells
Source text: (§7) We constructed two variants of the iSKetSnFR1 and iSketSnFR2 biosensors for expression in mammalian cells. The plasma membrane (_PM) and endoplasmic reticulum (_ER) variants were constructed by a circular polymerase extension cloning procedure. For iSketSnFR1_PM and iSKetSnFR2_PM, we cloned the bacterial constructs into pCMV(MinDis), a variant of pDisplay (Invitrogen, Carlsbad, CA, USA) lacking the hemagglutinin tag (Marvin et al., [2013]). We modified the previous transmembrane domain (Shivange et al., [2019]) as follows. We replaced the terminal KKPR of the PDGF receptor (a putative ER retention motif) with KYLQKRRERRRQ (a p14 Golgi export motif) and ENANSFCYENEVAL (a putative Kir2.X ER export motif). […]
(§8) Fujifilm CDI^2 (formerly named Cellular Dynamics International, Madison WI, USA), furnished iCell DopaNeurons. […] The supplier has measured that 89% of the cells are positive for tyrosine hydroxylase by fluorescence-activated cell sorting. […]
(§9) We find that signals with the iSKetSnFR constructs have brightness similar to those of the previous iNicSnFR cpGFP-based biosensors for nicotine (Shivange et al., [2019]), but the dynamic range is somewhat lower for the iKetSnFRs. […] Fluorescence measurements at λex = 470 nm have been described (Shivange et al., [2019]). […] PM-directed constructs were measured with a region of interest (ROI) that included only the cell periphery. […]

[1] = after which rapid antidepressant effects occur; ref Lester et al., 2012; Janssen Research and Development, 2019; cited from earlier work
iSketSnFR1_ER = test: Time-resolved fluorescence in iPSC-derived dopaminergic neurons transfected with iSketSnFR1_ER; assay type: cell-based, human; conditions: Figure 6C, dopaminergic neurons differentiated from iPSCs, average of five cells
Source text: as §7, §8, §9

[2] = tested on: iNicSnFR1, iNicSnFR2, and iNicSnFR3a, as well as 12 other biosensors in the series; test: Fluorescence test against iNicSnFR biosensors; assay type: biochemical; conditions: at concentrations <100 μM
Procedure: as §1, with “sequenced. The most sensitive construct in each round of SSM was used as a template for the next round of SSM.” for “sequenced.”
We tested S-ketamine and R-ketamine (Figure 1) against iNicSnFR1, iNicSnFR2, and iNicSnFR3a, as well as against 12 other biosensors in the series that led to the iNicSnFRs (Shivange et al., [2019]).

iSketSnFR2_PM = test: Time-resolved fluorescence in Neuro2a cells transfected with iSketSnFR2_PM; assay type: cell-based
Source text: as §7, with “follows.” for “follows. We replaced the terminal KKPR of the PDGF receptor (a putative ER retention motif) with KYLQKRRERRRQ (a p14 Golgi export motif) and ENANSFCYENEVAL (a putative Kir2.X ER export motif).”
(§10) We find that signals with the iSKetSnFR constructs have brightness similar to those of the previous iNicSnFR cpGFP-based biosensors for nicotine (Shivange et al., [2019]), but the dynamic range is somewhat lower for the iKetSnFRs. […] Fluorescence measurements at λex = 470 nm have been described (Shivange et al., [2019]). […] PM-directed constructs were measured with a region of interest (ROI) that included only the cell periphery.
(§11) Solutions were delivered from elevated reservoirs by gravity flow, through solenoid valves (Automate Scientific, Berkeley, CA, USA), then through tubing fed into a manifold, at a rate of 1–2 ml/min. […] As usual in fluorescence imaging experiments, we excluded data from the brightest cells, because these may have fluorescent impurities or aggregates that produce a rapidly bleaching baseline. […]

[3] = tested on: iSketSnFR1_PM or iSketSnFR1_ER; test: Time-resolved fluorescence in Neuro2a cells transfected with iSketSnFR1 constructs; assay type: cell-based; conditions: 20 s pulses (Figure 4), read-out: half-maximal concentration of S-ketamine
Source text: as §7, with “follows.” for “follows. We replaced the terminal KKPR of the PDGF receptor (a putative ER retention motif) with KYLQKRRERRRQ (a p14 Golgi export motif) and ENANSFCYENEVAL (a putative Kir2.X ER export motif).”
as §10, §11

[4] = tested on: endoplasmic reticulum (ER); test: Subcellular pharmacokinetics: S-ketamine in the endoplasmic reticulum measured with ER- and PM-targeted biosensors; assay type: cell-based; conditions: Neuro2a cells and human dopaminergic neurons differentiated from iPSCs
Source text: as §7, with “follows.” for “follows. We replaced the terminal KKPR of the PDGF receptor (a putative ER retention motif) with KYLQKRRERRRQ (a p14 Golgi export motif) and ENANSFCYENEVAL (a putative Kir2.X ER export motif).”
as §10, §11

iSketSnFR2_ER = test: Time-resolved fluorescence in Neuro2a cells transfected with iSketSnFR2_ER; assay type: cell-based
Source text: as §7, with “follows.” for “follows. We replaced the terminal KKPR of the PDGF receptor (a putative ER retention motif) with KYLQKRRERRRQ (a p14 Golgi export motif) and ENANSFCYENEVAL (a putative Kir2.X ER export motif).”
as §10, §11

iSketSnFR1 (AK2) = test: Dose-response of purified iSketSnFR1 (AK2) biosensor fluorescence; assay type: biochemical
Procedure: as §1, §2, §3, §4, §5, §6

AK1 = test: S-ketamine dose-response of biosensor construct AK1; assay type: biochemical; conditions: at 1 μM S-ketamine; Gly residue at position 357
Source text: Starting with the iNicSnFR biosensor constructs (Shivange et al., [2019]), we constructed and measured ~3,000 mutants, in iterative rounds of site-saturated mutagenesis (SSM). We utilized the Quikchange mutagenesis protocol (Agilent), including a mixture of three primers, creating 22 unique codons encoding the 20 canonical amino acids (Kille et al., [2013]). The 22-codon procedure yields an estimated >96% residue coverage for a collection of 96 randomly chosen clones.
as §1, with “sequenced. […]” for “sequenced.”
Biosensors selected for further study were purified with the His6 sequence included in the bacterial expression vector (Shivange et al., [2019]). […] The dialyzed protein was quantified using a nanodrop spectrofluorometer, and 50 or (preferably) 100 nM was used in dose-response studies to characterize responses to various ligands. Dose-response relations for ligands were conducted with the plate reader. […]
as §6

[5] = Figure 2B2, purified protein, pH 7.0, 3× PBS, Hill fit
[6] = Figure 5C, sub-μM S-ketamine, linear fit, average of 10 cells
[7] = [S-ketamine] <1 μM, mean ± SD, 25 total cells from two independent transfections
[8] = Figure 2B1, purified protein, pH 7.0, 3× PBS, Hill fit

For `CN[C@@]1(c2ccccc2Cl)CCCCC1=O` [R-ketamine], the “concentrations giving detectable responses” value (iSketSnFR2 (AK8)) was over 100 µM and the “S-slope lower than that of S-ketamine” value (iSketSnFR2 (AK8); at iSketSnFR2) was “at least 100 fold”.

For `C[N+](C)(C)[C@]1(c2ccccc2Cl)CCCCC1=O` [N,N-dimethyl-S-ketamine], the “activation of the iSketSnFR constructs” value (iSketSnFR constructs) was “did not produce robust activation”.

For `CN[C@]1(c2ccccc2Cl)CCCCC1=O` [S-ketamine], the S-slope (iSketSnFR1_PM) is given as 0.099 µM⁻¹ and 0.1 µM⁻¹, the “peak blood plasma concentrations” value [1] is given as 0.2 to 1 µM and the S-slope (iSketSnFR1_ER) is given as 0.111 µM⁻¹. The “fluorescence increase activated by ligand” value [2] was “no detectable fluorescence increase”, the “S-Ketamine Dose-Response S-slope” value (iSketSnFR2 (AK8); Figure 2A, purified protein) was 1.87 µM⁻¹ and 1.9 µM⁻¹ and the EC50 (iSketSnFR2 (AK8); [5]) was 1.16 ± 0.6 µM. The ΔFmax/F0 (iSketSnFR2 (AK8); [5]) was 3.0 ± 0.3, the S-slope (iSketSnFR2 (AK8); Figure 7A, in solution, λEx = 400 nm, pH 7) was -0.23 µM⁻¹ and the “S-slope = delta(F/F0)/(delta[S-ketamine])” value (iSketSnFR2 (AK8); in solution (abstract)) was 1.9 µM⁻¹. For the same molecule, the “[S-slope] (magnitude)” value (iSketSnFR2 (AK8); λex = 400 nm, purified protein, pH range 6 to 8.5 (Supplementary Figure S2)) was at most 0.3, the S-slope (iSketSnFR2_PM; [6]) was 0.49 µM⁻¹ and the S-slope (iSketSnFR2_PM; [7]) was 0.42 ± 0.14 µM⁻¹. For the same molecule, the EC50 [3] was about 10 µM, the “time for entry into the ER after appearing in the external solution” value [4] was “within a few seconds” and the “time to leave the ER after removal from the extracellular solution” value [4] was “within a few seconds”. The S-slope (iSketSnFR2_ER; [6]) was 0.26 µM⁻¹, the S-slope (iSketSnFR2_ER; [7]) was 0.29 ± 0.04 µM⁻¹ and the “S-Ketamine Dose-Response S-slope” value (iSketSnFR1 (AK2); Figure 2A, purified protein) was 0.32 µM⁻¹. The EC50 (iSketSnFR1 (AK2); [8]) was 10.7 ± 1.5 µM, the ΔFmax/F0 (iSketSnFR1 (AK2); [8]) was 3.4 ± 0.1 and the “expected response ΔF/F0 in vitro” value (iSketSnFR1 (AK2); to 1 μM S-ketamine, expected from S-slope) was 0.32. For the same molecule, the ΔF/F0 (AK1) was ~ 0.12.
